From ChEMBL document CHEMBL1152024, “Synthesis and bronchospasmolytic properties of some pyridazinone derivatives” (1993)

How the values were obtained:
Type in all cases: functional
Cavia porcellus [1] = organism: Cavia porcellus; assay: Tested in vitro for its effect on tracheal relaxation in guinea pig trachea, activity expressed as percentage increase in the velocity of the flux of perfusion at concentration 30 ug/mL
Cavia porcellus [2] = organism: Cavia porcellus; assay: Tested in vitro for its effect on tracheal relaxation in guinea pig trachea, activity expressed as percentage increase in the velocity of the flux of perfusion at concentration 10 ug/mL
Cavia porcellus [3] = organism: Cavia porcellus; assay: Tested in vitro for its effect on tracheal relaxation in guinea pig trachea, activity expressed as pD2 (-log of molar concentration which gives a half maximal relaxing effect)

| SMILES | Increase (Cavia porcellus [1]) [%] | Increase (Cavia porcellus [2]) [%] | pD2 (Cavia porcellus [3]) |
| --- | --- | --- | --- |
| Nc1c(Cl)cc(C(O)CN2CCN(c3ccc(O)nn3)CC2)cc1Cl (configuration not stated) | 54 | – | – |
| CC(=O)Nc1ccc(C(O)CN2CCN(CCn3nc(Cl)ccc3=O)CC2)cc1Cl (configuration not stated) | 4 | – | – |
| Cn1c(=O)c2nc[nH]c2n(C)c1=O.O [THEOPHYLLINE] | – | 55 | 4 |
| O=c1ccc(Cl)nn1CCN1CCN(CC(O)c2ccc(Cl)c(Cl)c2)CC1 (configuration not stated) | 46 | – | – |
| CC(=O)Nc1ccc(C(O)CN2CCN(c3cnnc(O)c3Cl)CC2)cc1Cl (configuration not stated) | 4 | – | – |
| Nc1c(Cl)cc(C(O)CN2CCN(CCn3nc(Cl)ccc3=O)CC2)cc1Cl (configuration not stated) | 22 | – | – |
| Oc1ccc(N2CCN(CC(O)c3ccc(Cl)c(Cl)c3)CC2)nn1 (configuration not stated) | 87 | – | 4.79 |
| CC(=O)Nc1ccc(C(O)CN2CCN(c3ccc(O)nn3)CC2)cc1Cl (configuration not stated) | 23 | – | – |
| Oc1nncc(N2CCN(CC(O)c3ccc(Cl)c(Cl)c3)CC2)c1Cl (configuration not stated) | 3 | – | – |
| Nc1c(Cl)cc(C(O)CN2CCN(c3cnnc(O)c3Cl)CC2)cc1Cl (configuration not stated) | 19 | – | – |
